# Data taken from patent US11912693B2, “Compounds for modulating S1P1 activity and methods of using the same” (TREVENA, INC., priority 2017, dated 2024).
# Key:
# [1] = molecular target: T1, human sphingosine-1-phosphate receptor 1 (S1P1) (Homo sapiens (Human), UniProt P21453); assay: Inhibition of cAMP production (HTRF cAMP HiRange), S1P1 CHO-K1 cells; type: cell-based; conditions: for Emax: CHO-K1, read-out: hS1P1 cAMP SPAN
# How it was run: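 CHO-K1 cells stably co-expressing human S1P1 (C-terminal Prolink tag) and EA-β-arrestin2 were grown in AssayComplete Media 6 at 37° C. and 5% CO2, plated, and incubated overnight. Agonist-driven inhibition of intracellular cAMP was read by TR-FRET with the HTRF cAMP HiRange kit on a PheraStar reader. Potency is pEC50, and efficacy (SPAN) is normalized to fingolimod.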
# Target sequence in this assay (P21453 whole entry, looked up): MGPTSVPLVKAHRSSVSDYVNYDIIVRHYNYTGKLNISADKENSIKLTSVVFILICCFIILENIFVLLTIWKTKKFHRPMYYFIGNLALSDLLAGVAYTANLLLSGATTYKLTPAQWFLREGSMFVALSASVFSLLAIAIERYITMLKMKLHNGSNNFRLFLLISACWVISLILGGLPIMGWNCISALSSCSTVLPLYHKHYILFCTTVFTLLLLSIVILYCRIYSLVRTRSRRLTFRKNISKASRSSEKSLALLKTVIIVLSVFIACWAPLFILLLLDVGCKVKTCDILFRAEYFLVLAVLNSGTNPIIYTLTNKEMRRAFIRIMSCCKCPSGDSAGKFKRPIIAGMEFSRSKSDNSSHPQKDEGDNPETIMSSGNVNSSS
# [2] = molecular target: T1, human sphingosine-1-phosphate receptor 1 (S1P1); assay: β-Arrestin2 recruitment assay (PathHunter), S1P1 CHO-K1 cells; type: cell-based; conditions: for Emax: CHO-K1, read-out: hS1P1 B-arrestin2 SPAN
# How it was run: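 Enzyme-fragment complementation read-out: agonist-driven β-arrestin2 binding to ProLink-tagged human S1P1 in stable CHO-K1 cells restores β-galactosidase, measured 1 h at room temperature after a 60 min 37° C. compound incubation. Potency as pEC50, efficacy relative to fingolimod (SPAN).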
# Target sequence in this assay (P21453 whole entry, looked up): as above
# Target sequence in this assay (P32121 whole entry partner, looked up): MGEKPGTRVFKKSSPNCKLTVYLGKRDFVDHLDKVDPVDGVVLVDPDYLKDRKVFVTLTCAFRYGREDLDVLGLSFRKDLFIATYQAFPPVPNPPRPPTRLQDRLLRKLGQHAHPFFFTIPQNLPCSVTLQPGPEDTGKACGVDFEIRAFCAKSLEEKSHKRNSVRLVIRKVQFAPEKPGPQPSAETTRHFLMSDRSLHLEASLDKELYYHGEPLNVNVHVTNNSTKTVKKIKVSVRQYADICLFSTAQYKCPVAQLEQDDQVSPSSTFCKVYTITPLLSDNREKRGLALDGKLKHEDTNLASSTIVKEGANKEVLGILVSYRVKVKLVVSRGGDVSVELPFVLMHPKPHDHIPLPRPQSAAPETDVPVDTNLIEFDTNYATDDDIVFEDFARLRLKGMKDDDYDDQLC
# [3] = inhibition of cAMP production, S1P1 CHO-K1 cells
# [4] = β-arrestin2 recruitment, S1P1 CHO-K1 cells
# [5] = efficacy (SPAN) normalized to fingolimod
SMILES,"hS1P1 cAMP pEC50 [1, 3]","hS1P1 B-arrestin2 pEC50 [2, 4]","Emax [1, 5]","Emax [2, 5]",further results
"COc1ccccc1-c1cnc(-c2ccc3c(c2)nnn3C(C)C)nc1 [Compound 565, 1-isopropyl-5-(5-(2-methoxyphenyl)pyrimidin-2-yl)-1H-benzo[d][1,2,3]triazole]",>6.5,>5,–,–,–
"COc1ccccc1-c1c[nH]c(-c2ccc3c(c2)nnn3C(C)C)c1 [Compound 566, 5-[4-(2-methoxyphenyl)-1H-pyrrol-2-yl]-1-(propan-2-yl)-1H-1,2,3-benzotriazole]",<6.5,<5,–,–,–
"Cn1ccnc1-c1noc(-c2ccc3c(c2)nnn3CC(C)(C)O)n1 [Compound 567, 2-methyl-1-{5-[3-(1-methyl-1H-imidazol-2-yl)-1,2,4-oxadiazol-5-yl]-1H-1,2,3-benzotriazol-1-yl}propan-2-ol]",<6.5,<5,–,–,–
"CC(C)(O)Cn1nnc2cc(-c3nc(-c4cocn4)no3)ccc21 [Compound 570, 2-methyl-1-{5-[3-(1,3-oxazol-4-yl)-1,2,4-oxadiazol-5-yl]-1H-1,2,3-benzotriazol-1-yl}propan-2-ol]",<6.5,<5,< 75%,< 75%,–
"COc1ccccc1-c1nc(-c2ccc3c(c2)nnn3C(C)C)co1 [Compound 575, 5-[2-(2-methoxyphenyl)-1,3-oxazol-4-yl]-1-(propan-2-yl)-1H-1,2,3-benzotriazole]",>6.5,>5,> 75%,> 75%,–
"CC(C)n1nnc2cc(-c3noc(-c4ccccc4N)n3)ccc21 [Compound 576, 2-{3-[1-(propan-2-yl)-1H-1,2,3-benzotriazol-5-yl]-1,2,4-oxadiazol-5-yl}aniline]",>6.5,>5,> 75%,< 75%,–
"CC(C)(O)Cn1nnc2cc(-c3nc(-c4cccc5cc[nH]c45)no3)ccc21 [Compound 577, 1-{5-[3-(1H-indol-7-yl)-1,2,4-oxadiazol-5-yl]-1H-1,2,3-benzotriazol-1-yl}-2-methylpropan-2-ol]",<6.5,>5,< 75%,< 75%,–
"COc1cc(NC(C)=O)ccc1-c1nc(-c2ccncc2)no1 [Compound 582, N-{3-methoxy-4-[3-(pyridin-4-yl)-1,2,4-oxadiazol-5-yl]phenyl}acetamide]",<6.5,<5,–,–,–
"CCOP(=O)(Cc1ccc(-c2noc(-c3ccc4c(c3)nnn4C(C)C)n2)cc1)OCC [Compound 583, diethyl [(4-{5-[1-(propan-2-yl)-1H-1,2,3-benzotriazol-5-yl]-1,2,4-oxadiazol-3-yl}phenyl)methyl]phosphonate]",–,–,–,–,"hS1P1 cAMP SPAN [1, 5]: <75; hS1P1 B-arrestin2 SPAN [2, 5]: <75"
"CCC1CC(=O)c2ccc(-c3nc(-c4cccnc4)no3)cc2O1 (stereo not drawn) [Compound 588, 2-ethyl-7-[3-(pyridin-3-yl)-1,2,4-oxadiazol-5-yl]-3,4-dihydro-2H-1-benzopyran-4-one]",<6.5,<5,–,–,–
"CC(C)(O)Cn1nnc2cc(-c3nc(-c4ccc5nonc5c4)no3)ccc21 [Compound 590, 1-{5-[3-(2,1,3-benzoxadiazol-5-yl)-1,2,4-oxadiazol-5-yl]-1H-1,2,3-benzotriazol-1-yl}-2-methylpropan-2-ol]",<6.5,<5,–,–,–
"CCC1(CC)CC(=O)c2cc(-c3nc(-c4cccs4)no3)ccc2N1 [Compound 591, 2,2-diethyl-6-(3-(thiophen-2-yl)-1,2,4-oxadiazol-5-yl)-2,3-dihydroquinolin-4(1H)-one]",>6.5,>5,–,–,–
"Cc1ccccc1-c1nc(-c2ccc3c(c2)nnn3CC(C)(C)O)no1 [Compound 593, 2-methyl-1-(5-(5-(o-tolyl)-1,2,4-oxadiazol-3-yl)-1H-benzo[d][1,2,3]triazol-1-yl)propan-2-ol]",–,–,> 75%,> 75%,"EC50 ([1]; inhibition of cAMP production, S1P1 CHO-K1 cells, read-out: hS1P1 cAMP pEC50 (converted)): < 0.316 µM; EC50 ([2]; β-arrestin2 recruitment, S1P1 CHO-K1 cells, read-out: hS1P1 B-arrestin2 pEC50 (converted)): < 10 µM"
"CCC1(CC)CC(=O)c2cc(-c3ncc(-c4ccccc4OC)cn3)ccc2O1 [Compound 594, 2,2-diethyl-6-(5-(2-methoxyphenyl)pyrimidin-2-yl)chroman-4-one]",>6.5,>5,–,–,–
"Cc1cnccc1-c1noc(-c2ccc3c(c2)nnn3CC(C)(C)O)n1 [Compound 597, 2-methyl-1-{5-[3-(3-methylpyridin-4-yl)-1,2,4-oxadiazol-5-yl]-1H-1,2,3-benzotriazol-1-yl}propan-2-ol]",>6.5,>5,–,–,–
"Cc1ccccc1-c1cc(-c2ccc3c(c2)nnn3C(C)C)c[nH]1 [Compound 601, 5-[5-(2-methylphenyl)-1H-pyrrol-3-yl]-1-(propan-2-yl)-1H-1,2,3-benzotriazole]",<6.5,>5,–,–,–
"CCC1(CC)CC(=O)c2cc(-c3nc(-c4cncc(S(N)(=O)=O)c4)no3)ccc2O1 [Compound 603, 5-(5-(2,2-diethyl-4-oxochroman-6-yl)-1,2,4-oxadiazol-3-yl)pyridine-3-sulfonamide]",>6.5,>5,–,–,–
"CCC1(CC)CC(=O)c2cc(-c3nc(-c4sccc4OC)no3)ccc2O1 [Compound 604, 2,2-diethyl-6-(3-(3-methoxythiophen-2-yl)-1,2,4-oxadiazol-5-yl)chroman-4-one]",>6.5,>5,–,–,–
"COc1ccncc1-c1nc(-c2ccc3c(c2)nnn3C(C)C)no1 [Compound 605, 3-(1-isopropyl-1H-benzo[d][1,2,3]triazol-5-yl)-5-(4-methoxypyridin-3-yl)-1,2,4-oxadiazole]",>6.5,>5,> 75%,> 75%,–

# Further lines, with some results ahead:
"hS1P1 cAMP pEC50 [1, 3]","hS1P1 B-arrestin2 pEC50 [2, 4]","Emax [1, 5]","Emax [2, 5]",SMILES,further results
<6.5,<5,> 75%,< 75%,"CC(C)n1nnc2cc(-c3nc(-c4nccn4C)no3)ccc21 [Compound 569, 5-[3-(1-methyl-1H-imidazol-2-yl)-1,2,4-oxadiazol-5-yl]-1-(propan-2-yl)-1H-1,2,3-benzotriazole]",–
>6.5,>5,–,–,"Cc1nc2cc(-c3nc(-c4ccc5c(c4)nnn5C(C)C)no3)ccc2[nH]1 [Compound 571, 5-[5-(2-methyl-1H-1,3-benzodiazol-5-yl)-1,2,4-oxadiazol-3-yl]-1-(propan-2-yl)-1H-1,2,3-benzotriazole]",–
<6.5,<5,–,–,"CC(C)Nc1ccc(-c2nnc(-c3ccc4c(c3)ncn4C)o2)cc1C#N [Compound 572, 5-[5-(1-methyl-1H-1,3-benzodiazol-5-yl)-1,3,4-oxadiazol-2-yl]-2-[(propan-2-yl)amino]benzonitrile]",–
<6.5,<5,–,–,"Cn1cnc2cc(-c3nnc(-c4ccc(NCC(F)F)c(C#N)c4)o3)ccc21 [Compound 573, 2-[(2,2-difluoroethyl)amino]-5-[5-(1-methyl-1H-1,3-benzodiazol-5-yl)-1,3,4-oxadiazol-2-yl]benzonitrile]",–
<6.5,<5,–,–,"CC(C)Nc1ccc(-c2nnc(-c3ccc4c(c3)ncn4CCO)o2)cc1C#N [Compound 574, 5-{5-[1-(2-hydroxyethyl)-1H-1,3-benzodiazol-5-yl]-1,3,4-oxadiazol-2-yl}-2-[(propan-2-yl)amino]benzonitrile]",–
<6.5,<5,–,–,"N#Cc1cc(-c2nnc(-c3ccc4c(c3)ncn4CCO)o2)ccc1NCC(F)F [Compound 578, 2-[(2,2-difluoroethyl)amino]-5-{5-[1-(2-hydroxyethyl)-1H-1,3-benzodiazol-5-yl]-1,3,4-oxadiazol-2-yl}benzonitrile]",–
<6.5,<5,< 75%,< 75%,"CNc1ccccc1-c1coc(-c2ccc3c(c2)nnn3C(C)C)n1 [Compound 587, N-methyl-2-{2-[1-(propan-2-yl)-1H-1,2,3-benzotriazol-5-yl]-1,3-oxazol-4-yl}aniline]",–
>6.5,>5,–,–,"CC(C)Oc1ccc(-c2ncc(-c3ccc4c(c3)nnn4C(C)C)cn2)cc1C#N [Compound 595, 2-isopropoxy-5-(5-(1-isopropyl-1H-benzo[d][1,2,3]triazol-5-yl)pyrimidin-2-yl)benzonitrile]",–
>6.5,>5,–,–,"CC(C)Nc1ccc(-c2ncc(-c3ccc4c(c3)nnn4C(C)C)cn2)cc1C#N [Compound 596, 5-(5-(1-isopropyl-1H-benzo[d][1,2,3]triazol-5-yl)pyrimidin-2-yl)-2-(isopropylamino)benzonitrile]",–
>6.5,>5,< 75%,> 75%,"CNc1ccccc1-c1nc(-c2ccc3c(c2)nnn3C(C)C)no1 [Compound 599, N-methyl-2-{3-[1-(propan-2-yl)-1H-1,2,3-benzotriazol-5-yl]-1,2,4-oxadiazol-5-yl}aniline]",–
<6.5,<5,–,–,"CC(C)n1nnc2cc(-c3noc(-c4ncccc4O)n3)ccc21 [Compound 602, 2-{3-[1-(propan-2-yl)-1H-1,2,3-benzotriazol-5-yl]-1,2,4-oxadiazol-5-yl}pyridin-3-ol]",–
